Test results from patent US8471005B2 (Cephalon, Inc., priority 2008, dated 2013).
Read-outs that look alike come from different tables or passages of the source.

Key:
ALK = biological target: T1, ALK (Homo sapiens, UniProt Q9UM73); test: ALK Kinase Assay (ELISA/TRF, PLC-γ substrate); type: biochemical; conditions: read-out: ALK Potency
T1 construct: host or cells: baculovirus expression system
How it was run: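 Time-resolved fluorescence ELISA using Eu-N1 PT66 antibody to detect phosphorylated PLC-γ (coated at 10 μg/mL). Enzyme at 30 ng/ml ALK; 15 min incubation, 37° C.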

JAK2 = biological target: T2, JAK2 (Homo sapiens, UniProt O60674); test: Recombinant Human JAK2 Kinase Assay (TRF); type: biochemical; conditions: read-out: JAK2 Potency
T2 construct: host or cells: baculovirus expression system
How it was run: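 Europium-labelled PY100 antibody reported tyrosine phosphorylation of a Neutravidin-captured biotinyl 15-mer peptide by JAK2 (baculovirus-expressed, 15 ng/ml). Conditions: 20 mM HEPES pH 7.2, 0.2 μM ATP, 1 mM MnCl2, 0.1% BSA, DMSO 2.5% final, 20 min at room temperature.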

[1] = ALK kinase inhibition, 1 μM ATP
[2] = JAK2 kinase inhibition, 0.2 μM ATP

T1 sequence (Q9UM73 19-1620): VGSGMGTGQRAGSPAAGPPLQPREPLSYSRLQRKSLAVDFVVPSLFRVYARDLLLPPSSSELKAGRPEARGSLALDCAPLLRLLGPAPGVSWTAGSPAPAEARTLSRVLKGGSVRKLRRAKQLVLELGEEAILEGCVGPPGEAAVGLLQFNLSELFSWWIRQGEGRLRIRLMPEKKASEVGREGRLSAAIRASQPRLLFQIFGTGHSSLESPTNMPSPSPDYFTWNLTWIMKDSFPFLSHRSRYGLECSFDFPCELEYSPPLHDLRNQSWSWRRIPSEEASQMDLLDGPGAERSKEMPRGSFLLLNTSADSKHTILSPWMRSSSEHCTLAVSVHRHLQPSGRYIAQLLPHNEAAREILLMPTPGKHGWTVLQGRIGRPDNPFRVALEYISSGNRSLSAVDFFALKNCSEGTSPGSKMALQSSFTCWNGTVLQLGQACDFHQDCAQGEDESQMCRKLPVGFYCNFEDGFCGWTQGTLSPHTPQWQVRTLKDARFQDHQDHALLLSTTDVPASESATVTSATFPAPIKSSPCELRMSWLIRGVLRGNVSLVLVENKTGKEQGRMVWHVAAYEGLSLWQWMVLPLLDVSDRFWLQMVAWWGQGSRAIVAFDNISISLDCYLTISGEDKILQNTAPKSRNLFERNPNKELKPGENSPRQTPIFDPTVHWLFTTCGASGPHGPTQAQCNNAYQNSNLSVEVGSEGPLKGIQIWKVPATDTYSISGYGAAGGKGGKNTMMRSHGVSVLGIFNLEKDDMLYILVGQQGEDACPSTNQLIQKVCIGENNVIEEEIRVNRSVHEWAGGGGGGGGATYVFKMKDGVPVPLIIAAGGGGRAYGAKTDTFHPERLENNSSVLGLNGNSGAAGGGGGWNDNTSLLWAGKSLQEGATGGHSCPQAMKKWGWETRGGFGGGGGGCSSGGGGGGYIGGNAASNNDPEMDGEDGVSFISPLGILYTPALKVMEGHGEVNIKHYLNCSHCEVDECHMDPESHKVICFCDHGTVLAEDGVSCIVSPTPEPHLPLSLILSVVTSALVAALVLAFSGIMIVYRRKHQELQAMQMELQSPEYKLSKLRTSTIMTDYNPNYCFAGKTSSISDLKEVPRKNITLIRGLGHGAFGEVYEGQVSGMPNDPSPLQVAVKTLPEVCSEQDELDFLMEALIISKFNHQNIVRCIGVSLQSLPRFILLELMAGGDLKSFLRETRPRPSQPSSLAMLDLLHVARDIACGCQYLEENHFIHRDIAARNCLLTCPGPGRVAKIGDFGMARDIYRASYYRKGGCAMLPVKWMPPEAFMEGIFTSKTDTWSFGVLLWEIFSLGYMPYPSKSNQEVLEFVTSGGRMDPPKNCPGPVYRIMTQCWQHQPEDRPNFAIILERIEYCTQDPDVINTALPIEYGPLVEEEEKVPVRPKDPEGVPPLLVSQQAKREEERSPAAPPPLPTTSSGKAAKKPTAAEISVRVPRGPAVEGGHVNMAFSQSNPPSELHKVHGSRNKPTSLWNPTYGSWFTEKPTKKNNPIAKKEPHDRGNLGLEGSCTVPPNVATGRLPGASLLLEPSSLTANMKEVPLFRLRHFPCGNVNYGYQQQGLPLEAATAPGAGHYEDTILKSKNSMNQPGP
T2 sequence (O60674 whole entry): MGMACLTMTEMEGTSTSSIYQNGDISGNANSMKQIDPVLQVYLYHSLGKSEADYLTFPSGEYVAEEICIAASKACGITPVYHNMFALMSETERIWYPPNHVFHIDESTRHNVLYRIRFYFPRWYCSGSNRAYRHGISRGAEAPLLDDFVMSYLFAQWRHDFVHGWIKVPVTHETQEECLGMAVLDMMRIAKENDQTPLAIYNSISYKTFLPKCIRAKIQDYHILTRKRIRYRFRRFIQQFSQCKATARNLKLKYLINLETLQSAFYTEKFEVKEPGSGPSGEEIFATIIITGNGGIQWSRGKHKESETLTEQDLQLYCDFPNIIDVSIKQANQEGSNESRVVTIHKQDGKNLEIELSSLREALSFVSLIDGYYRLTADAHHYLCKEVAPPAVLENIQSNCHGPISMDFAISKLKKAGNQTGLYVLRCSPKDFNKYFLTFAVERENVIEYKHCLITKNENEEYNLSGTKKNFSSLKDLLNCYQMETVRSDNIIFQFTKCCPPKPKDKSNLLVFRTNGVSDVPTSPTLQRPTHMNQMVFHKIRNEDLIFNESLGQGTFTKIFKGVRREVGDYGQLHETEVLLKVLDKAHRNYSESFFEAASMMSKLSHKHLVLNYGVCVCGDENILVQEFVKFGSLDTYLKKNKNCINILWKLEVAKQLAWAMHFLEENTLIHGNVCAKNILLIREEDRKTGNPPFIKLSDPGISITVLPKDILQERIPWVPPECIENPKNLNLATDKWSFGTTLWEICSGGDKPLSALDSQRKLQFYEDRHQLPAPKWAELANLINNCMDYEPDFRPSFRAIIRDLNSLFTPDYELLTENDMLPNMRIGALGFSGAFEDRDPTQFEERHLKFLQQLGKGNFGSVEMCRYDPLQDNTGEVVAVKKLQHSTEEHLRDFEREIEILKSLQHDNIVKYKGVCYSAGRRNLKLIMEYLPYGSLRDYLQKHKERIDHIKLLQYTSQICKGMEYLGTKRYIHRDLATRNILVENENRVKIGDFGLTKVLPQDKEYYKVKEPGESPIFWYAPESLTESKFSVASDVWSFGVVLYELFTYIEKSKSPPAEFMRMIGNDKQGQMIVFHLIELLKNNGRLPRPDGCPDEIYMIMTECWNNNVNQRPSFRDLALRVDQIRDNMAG

Structure (SMILES) | IC50 (ALK; [1]) [µM] | IC50 (JAK2; [2]) [µM] | IC50 (ALK; ALK Kinase Inhibition) [µM] | IC50 (JAK2; JAK2 Kinase Inhibition) [µM]
CCN1CCN(C(=O)c2ccc(Nc3ncc4c(-c5ccc(F)cc5)ccn4n3)cc2)CC1 [Example 727, (4-Ethyl-piperazin-1-yl)-{4-[5-(4-fluoro-phenyl)-pyrrolo[2,1-f][1,2,4]triazin-2-ylamino]-phenyl}-methanone] | > 10 | > 10 |  | 
COc1cc(C2CCN(C(=O)CN)CC2)ccc1Nc1ncc2ccc(-c3ccccc3N(C)S(C)(=O)=O)n2n1 [Example 824, N-[2-(2-{4-[1-(2-Amino-acetyl)-piperidin-4-yl]-2-methoxy-phenylamino}-pyrrolo[2,1-f][1,2,4]triazin-7-yl)-phenyl]-N-methyl-methanesulfonamide] | < 0.1 | 1 to 10 |  | 
COc1cc(N2CCC(N3CCC(F)(F)CC3)CC2)ccc1Nc1ncc2ccc(-c3ccccc3OC)n2n1 [Example 1475, [4-(4,4-Difluoro-[1,4′]bipiperidinyl-1′-yl)-2-methoxy-phenyl]-[7-(2-methoxy-phenyl)-pyrrolo[2,1-f][1,2,4]triazin-2-yl]-amine] |  |  | < 0.1 | 0.1 to 1
CN1CCN(CC2CCCN(c3ccc(Nc4ncc5ccc(-c6ccccc6N(C)S(C)(=O)=O)n5n4)cc3)C2)CC1 (centres unmarked) [Example 455, N-Methyl-N-[2-(2-{4-[3-(4-methyl-piperazin-1-ylmethyl)-piperidin-1-yl]-phenylamino}-pyrrolo[2,1-f][1,2,4]triazin-7-yl)-phenyl]-methanesulfonamide] |  |  | < 0.1 | < 0.1
Cc1cc(Nc2ncc3ccc(-c4cccc(S(=O)(=O)NC(C)(C)C)c4)n3n2)ccc1C1CCN(C)CC1 [Example 940, N-tert-Butyl-3-{2-[3-methyl-4-(1-methyl-piperidin-4-yl)-phenylamino]-pyrrolo[2,1-f][1,2,4]triazin-7-yl}-benzenesulfonamide] | < 0.1 | < 0.1 |  | 
COc1ccccc1-c1ccc2cnc(Nc3cc(F)c(N4CCN(C[C@H](C)O)CC4)cc3F)nn12 [Example 1481, (S)-1-(4-{2,5-Difluoro-4-[7-(2-methoxy-phenyl)-pyrrolo[2,1-f][1,2,4]triazin-2-ylamino]-phenyl}-piperazin-1-yl)-propan-2-ol] |  |  | < 0.1 | < 0.1
COc1cc(CN2CCN(C(C)=O)CC2)ccc1Nc1ncc2ccc(-c3ccccc3N(C)S(C)(=O)=O)n2n1 [Example 1240, N-(2-{2-[4-(4-Acetyl-piperazin-1-ylmethyl)-2-methoxy-phenylamino]-pyrrolo[2,1-f][1,2,4]triazin-7-yl}-phenyl)-N-methyl-methanesulfonamide] | < 0.1 | 0.1 to 1 |  | 
COc1ccc(Cl)cc1-c1ccc2cnc(Nc3ccc4c(c3)CC(=O)N4C)nn12 [Example 360, 5-[7-(5-Chloro-2-methoxy-phenyl)-pyrrolo[2,1-f][1,2,4]triazin-2-ylamino]-1-methyl-1,3-dihydro-indol-2-one] |  |  | 0.1 to 1 | < 0.1
CC(=O)N1CC(C)(C)c2ccc(Nc3ncc4ccc(-c5cnn(C)c5)n4n3)cc21 [Example 968, 1-{3,3-Dimethyl-6-[7-(1-methyl-1H-pyrazol-4-yl)-pyrrolo[2,1-f][1,2,4]triazin-2-ylamino]-2,3-dihydro-indol-1-yl}-ethanone] | 0.1 to 1 | < 0.1 |  | 
COc1cc(N2CCC(N3CCOCC3)CC2)ccc1Nc1ncc2ccc(-n3cccn3)n2n1 [Example 1272, [2-Methoxy-4-(4-morpholin-4-yl-piperidin-1-yl)-phenyl]-(7-pyrazol-1-yl-pyrrolo[2,1-f][1,2,4]triazin-2-yl)-amine] | 0.1 to 1 | 1 to 10 |  | 
CN(C)c1cccc(CNc2ncc3c(-c4ccc(F)cc4)ccn3n2)c1 [Example 729, (3-Dimethylamino-benzyl)-[5-(4-fluoro-phenyl)-pyrrolo[2,1-f][1,2,4]triazin-2-yl]-amine] | > 10 | 1 to 10 |  | 
COc1ccc(-c2ccc3cnc(Nc4ccc(C5CCN(CC(N)=O)CC5)c(OC)c4)nn23)cn1 [Example 911, 2-(4-{2-Methoxy-4-[7-(6-methoxy-pyridin-3-yl)-pyrrolo[2,1-f][1,2,4]triazin-2-ylamino]-phenyl}-piperidin-1-yl)-acetamide] | < 0.1 | < 0.1 |  | 
CN1CCN(C)C(c2cccc(Nc3ncc4ccc(-c5ccc(S(C)(=O)=O)cc5)n4n3)c2)C1=O (centres unmarked) [Example 1084, 3-{3-[7-(4-Methanesulfonyl-phenyl)-pyrrolo[2,1-f][1,2,4]triazin-2-ylamino]-phenyl}-1,4-dimethyl-piperazin-2-one] | > 10 | < 0.1 |  | 
CON=C1CCC(c2ccc(Nc3ncc4ccc(-c5cccc(S(=O)(=O)C(C)C)c5)n4n3)cc2)CC1 (centres unmarked) [Example 576, 4-(4-{7-[3-(Propane-2-sulfonyl)-phenyl]-pyrrolo[2,1-f][1,2,4]triazin-2-ylamino}-phenyl)-cyclohexanone O-methyl-oxime] | 1 to 10 | < 0.1 |  | 
CN1CCN(c2ccc(Nc3ncc4ccc(-c5ccc(S(=O)(=O)N(C)C)cc5)n4n3)cc2)CC1 [Example 83, N,N-Dimethyl-4-{2-[4-(4-methyl-piperazin-1-yl)-phenylamino]-pyrrolo[2,1-f][1,2,4]triazin-7-yl}-benzenesulfonamide] |  |  | 0.1 to 1 | < 0.1
COc1cc([C@H]2CC[C@H](N3CCOCC3)CC2)ccc1Nc1ncc2ccc(-c3ccccc3N(C)S(C)(=O)=O)n2n1 [Example 1248, N-{2-[2-({2-methoxy-4-[trans-4-(morpholin-4-yl)cyclohexyl]phenyl}amino)pyrrolo[2,1-f][1,2,4]triazin-7-yl]phenyl}-N-methylmethanesulfonamide] | < 0.1 | 0.1 to 1 |  | 
c1cncc(-c2ccc3cnc(Nc4ccc(OCCN5CCOCC5)cc4)nn23)c1 [Example 125, [4-(2-Morpholin-4-yl-ethoxy)-phenyl]-(7-pyridin-3-yl-pyrrolo[2,1-f][1,2,4]triazin-2-yl)-amine] |  |  | 0.1 to 1 | < 0.1
CN1CCN(CCn2cc(Nc3ncc4ccc(-c5ccccc5N(C)S(C)(=O)=O)n4n3)cn2)CC1 [Example 1212, N-Methyl-N-[2-(2-{1-[2-(4-methyl-piperazin-1-yl)-ethyl]-1H-pyrazol-4-ylamino}-pyrrolo[2,1-f][1,2,4]triazin-7-yl)-phenyl]-methanesulfonamide] | 0.1 to 1 | < 0.1 |  | 
COc1cc(N(C)C(=O)CN2CCOCC2)ccc1Nc1ncc2ccc(-c3ccccc3OC)n2n1 [Example 472, N-{3-Methoxy-4-[7-(2-methoxy-phenyl)-pyrrolo[2,1-f][1,2,4]triazin-2-ylamino]-phenyl}-N-methyl-2-morpholin-4-yl-acetamide] | < 0.1 | 0.1 to 1 |  | 
CN1CCN(c2ccc(Nc3ncc4ccc(NCc5ccncc5)n4n3)cc2)CC1 [Example 1165, N(2)-[4-(4-Methyl-piperazin-1-yl)-phenyl]-N(7)-pyridin-4-ylmethyl-pyrrolo[2,1-f][1,2,4]triazine-2,7-diamine] | 1 to 10 | < 0.1 |  | 
CS(=O)(=O)c1cccc(-c2ccc3cnc(Nc4ccc(Cl)c(OC[C@@H]5CCCN5)c4)nn23)c1 [Example 1020, [4-Chloro-3-((S)-1-pyrrolidin-2-ylmethoxy)-phenyl]-[7-(3-methanesulfonyl-phenyl)-pyrrolo[2,1-f][1,2,4]triazin-2-yl]-amine] | 1 to 10 | < 0.1 |  | 
CC(C)S(=O)(=O)c1cccc(-c2ccc3cnc(Nc4ccc(Cl)c(OC[C@@H]5CCCN5)c4)nn23)c1 [Example 1015, [4-Chloro-3-((S)-1-pyrrolidin-2-ylmethoxy)-phenyl]-{7-[3-(propane-2-sulfonyl)-phenyl]-pyrrolo[2,1-f][1,2,4]triazin-2-yl}-amine] | 0.1 to 1 | < 0.1 |  | 
Clc1cccc(-c2ccc3cnc(Nc4ccc(N5CCC(N6CCOCC6)CC5)cc4)nn23)c1 [Example 336, [7-(3-Chloro-phenyl)-pyrrolo[2,1-f][1,2,4]triazin-2-yl]-[4-(4-morpholin-4-yl-piperidin-1-yl)-phenyl]-amine] |  |  | 0.1 to 1 | < 0.1
CN1CCN(c2cccc(Nc3ncc4ccc(-c5cn[nH]c5)n4n3)c2)CC1 [Example 970, [3-(4-Methyl-piperazin-1-yl)-phenyl]-[7-(1H-pyrazol-4yl)-pyrrolo[2,1-f][1,2,4]triazin-2-yl]-amine] | 0.1 to 1 | < 0.1 |  | 
CN(c1ccccc1-c1ccc2cnc(Nc3cnn(C4CCNCC4)c3)nn12)S(C)(=O)=O [Example 717, N-Methyl-N-{2-[2-(1-piperidin-4-yl-1H-pyrazol-4-ylamino)-pyrrolo[2,1-f][1,2,4]triazin-7-yl]-phenyl}-methanesulfonamide] | 0.1 to 1 | < 0.1 |  | 
COc1ccc(Nc2ncc3ccc(-c4ccccc4N(C)S(C)(=O)=O)n3n2)cc1N1CCCC1=O [Example 1370, N-(2-{2-[4-Methoxy-3-(2-oxo-pyrrolidin-1-yl)-phenylamino]-pyrrolo[2,1-f][1,2,4]triazin-7-yl}-phenyl)-N-methyl-methanesulfonamide] |  |  | 0.1 to 1 | < 0.1
CC(C)(C)NS(=O)(=O)c1cccc(-c2ccc3cnc(Nc4cccc(C5(O)CCNCC5)c4)nn23)c1 [Example 1550, N-tert-Butyl-3-{2-[3-(4-hydroxy-piperidin-4-yl)-phenylamino]-pyrrolo[2,1-f][1,2,4]triazin-7-yl}-benzenesulfonamide] |  |  | < 0.1 | < 0.1
CN1CCN(c2ccc(Nc3ncc4ccc(-c5ccc6c(c5)OCCO6)n4n3)cc2)CC1 [Example 8, [7-(2,3-Dihydro-benzo[1,4]dioxin-6-yl)-pyrrolo[2,1-f][1,2,4]triazin-2-yl]-[4-(4-methyl-piperazin-1-yl)-phenyl]-amine] |  |  | < 0.1 | < 0.1
